Data: ChEMBL document CHEMBL1157398, “Ymf 1029A-E, preussomerin analogues from the fresh-water-derived fungus YMF 1.01029” (2008)

Assays:
Format in all cases: functional
[1] = system: Bursaphelenchus xylophilus; assay: Nematicidal activity against Bursaphelenchus xylophilus at 200 ug/ml after 24 hrs
[2] = system: Bursaphelenchus xylophilus; assay: Nematicidal activity against Bursaphelenchus xylophilus at 100 ug/ml after 48 hrs
[3] = system: Bursaphelenchus xylophilus; assay: Nematicidal activity against Bursaphelenchus xylophilus at 100 ug/ml after 24 hrs
[4] = system: Bursaphelenchus xylophilus; assay: Nematicidal activity against Bursaphelenchus xylophilus at 200 ug/ml after 48 hrs

O=C1C[C@@H](O)[C@]23Oc4ccc(O)c5c4[C@](Oc4cccc1c42)(O3)[C@@H]1O[C@@H]1[C@@H]5O
Activity [1]: 56.7%
Activity [2]: 66.4%
Activity [3]: 45.2%
Activity [4]: 70.3%

O=C1CC[C@]23Oc4ccc(O)c5c4[C@](Oc4cccc1c42)(O3)[C@@H]1O[C@@H]1[C@@H]5O
Activity [1]: 47.9%
Activity [2]: 44.1%
Activity [3]: 33.7%
Activity [4]: 60.7%

O=C1C=C[C@]23Oc4ccc(O)c5c4[C@](Oc4cccc1c42)(O3)[C@@H]1O[C@@H]1[C@@H]5O [PREUSSOMERIN D]
Activity [1]: 60.4%
Activity [2]: 76.5%
Activity [3]: 53.8%
Activity [4]: 83.7%

O=C1c2c(O)ccc3c2[C@@]2(Oc4cccc5c4[C@](O3)(O2)[C@H](O)C[C@@H]5O)[C@@H]2O[C@H]12
Activity [1]: 52.3%
Activity [2]: 39.6%
Activity [3]: 27.8%
Activity [4]: 64.2%

O=C1CCC(O)c2cccc(O)c21 (racemic) [4,8-DIHYDROXY-1-TETRALONE]
Activity [1]: 53.4%
Activity [2]: 43.8%
Activity [3]: 34.7%
Activity [4]: 58.3%

Oc1ccc2c3c1[C@@H](O)[C@H]1O[C@H]1[C@]31Oc3cccc4c3[C@](O2)(O1)[C@H](O)C[C@@H]4O
Activity [1]: 54.8%
Activity [2]: 35.5%
Activity [3]: 25.6%
Activity [4]: 62.3%

O=C1CC[C@H](O)c2cc(O)cc(O)c21
Activity [1]: 51.2%
Activity [2]: 46.7%
Activity [3]: 23.7%
Activity [4]: 57.3%

CO[C@@H]1CC(=O)c2cccc3c2[C@@]12Oc1ccc(O)c4c1[C@](O3)(O2)[C@@H]1O[C@@H]1[C@@H]4O [PREUSSOMERIN C]
Activity [1]: 59.3%
Activity [2]: 67.4%
Activity [3]: 50.2%
Activity [4]: 78.6%
